Measured values published in ChEMBL document CHEMBL4350985, “1,3-Dioxane as a scaffold for potent and selective 5-HT1AR agonist with in-vivo anxiolytic, anti-depressant and anti-nociceptive activity” (Eur J Med Chem, 2019).
Calls of active or inactive are those of the source. The calls are words filed in the database; no cut-off is given here.

Columns and labels:
SH-SY5Y [1] = assay: Neuroprotective activity against oligomycin A-induced cell death in human SH-SY5Y cells at 1 uM incubated for 24 hrs by MTT assay; type: functional
SH-SY5Y [2] = assay: Neuroprotective activity against H2O2-induced cell death in human SH-SY5Y cells at 0.1 uM incubated for 24 hrs by MTT assay; type: functional
SH-SY5Y [3] = assay: Neuroprotective activity against oligomycin A-induced cell death in human SH-SY5Y cells at 0.1 uM incubated for 24 hrs by MTT assay; type: functional
[4] = Apparent permeability from basolateral to apical side in dog MDCK2-MDR1 cells incubated for 120 mins by UV-visible spectrophotometry; type: ADME, cell-based, Canis lupus familiaris; conditions: MDCK-MDR1
[5] = AUC (0 to t) in Sprague-Dawley rat plasma at 10 mg/kg, po measured upto 480 mins by LC/MS-MS analysis; type: ADME, organism-based; conditions: in vivo, 8 h
[6] = AUC (0 to infinity) in Sprague-Dawley rat plasma at 10 mg/kg, po measured upto 480 mins by LC/MS-MS analysis; type: ADME, organism-based; set-up: dose 10 mg/kg, route oral, time infinity; conditions: in vivo, 8 h
Rattus norvegicus [7] = assay: Anxiolytic activity at Sprague-Dawley rat assessed as increase in time spent in open arm at 10 mg/kg, po by EPM test relative to control; type: functional
Rattus norvegicus [8] = assay: Anxiolytic activity at Sprague-Dawley rat assessed as increase in number of open arm entries at 10 to 20 mg/kg, po by EPM test; type: functional, organism-based

`COc1ccccc1OCCNCC1COC(c2ccccc2)(c2ccccc2)OC1.O=C(O)C(=O)O` gave an Activity (SH-SY5Y [1]) of 83%, an Activity (SH-SY5Y [2]) of 89% and an Activity (SH-SY5Y [3]) of 69%. The Papp B→A at 2 h [4] was 12.6 ×10⁻⁶ cm/s, the AUCt [5] was 17.4 nmol·min/g and the AUC [6] was 18.1 nmol·min/g. For the same compound, the Activity (Rattus norvegicus [7]) was 20% and the Activity (Rattus norvegicus [8]) was “Active”.
